From patent US20150374784A1, “COMPOSITIONS AND METHODS FOR REDUCING GERM CELL DEATH” (Los Angeles Biomedical Research Institute at Harbor-UCLA …, priority 2014, published 2015) come the findings set out here.

In one data set the test system is Leydig cells. Briefly: Leydig cell depletion and testosterone levels in rats. In kind it is in vivo, rat. The note with it: for intratesticular testosterone levels / serum testosterone levels: rats, EDS 80 mg/kg, CP 70 mg/kg BW, HN 40 mg/kg BW, with or without EDS pre-treatment.
The next data set concerns STAT3. Briefly: STAT3 phosphorylation in testis by western blot. In kind it is in vivo, mouse. As to conditions: testis homogenates; for STAT3 phosphorylation (phosphorylated STAT3/STAT3) compared with control: treatment alone. Here is the method: (§1) For the HN analog experiments, male mice were divided into seven groups (n=4-5 per group) and received one of the following treatments and sacrificed after 24 hours: 1) vehicle (control); 2) a single intra-peritoneal (IP) injection of HN peptide [HN, 40 mg/Kg body weight (BW)]; 3) a single IP injection of CP (CP, 200 mg/Kg BW); 4) IP injection of CP and HN (CP+HN); 5) a single IP injection of each HN analog (HNG 5 mg/Kg BW, HNG-F6A 5 mg/Kg BW, HN-S7A 40 mg/Kg BW, HN-C8P 40 mg/Kg BW, or HN-L12A 40 mg/Kg BW); 6) IP injection of CP and each HN analog (CP+HNG, HNG-F6A, HN-S7A, HN-C8P, or HN-L12A); and 7) IP injection of CP+HN+HN analog (HN-S7A, HN-C8P, or HN-L12A; to assess whether the analogs has enhancing or inhibitory effect on HN).
(§2) To facilitate testicular fixation by using a whole-body perfusion technique, all animals were injected with heparin (130 IU/100 g BW, IP) 15 min before a lethal injection of sodium pentobarbital (200 mg/kg BW, IP) (Lue Y H, et al., 1999). One testis was removed and weighed after perfusion with saline. Portions of testicular parenchyma were snap frozen in liquid nitrogen, and stored at −80 C for Western blotting. The other testis was fixed by vascular perfusion with Bouin's solution, and processed with routine paraffin embedding for in situ detection of apoptosis.
Western blotting was performed as described previously (Jia Y, et al., 2009). In brief, proteins were denatured and separated by sodium dodecyl sulfate-polyacrylamide gel electrophoresis (SDS-PAGE) system (Invitrogen, Carlsbad, Calif.). After transferring, the Immuno-blot PVDF Membrane (Bio-Rad, Hercules, Calif.) was blocked for 1 h and then probed using anti-STAT3 or anti-pSer727 STAT3 (Cell signaling Technology, Inc., Beverly, Mass.) overnight at 4 C with constant shaking. After washing, membrane was then incubated with an anti-mouse (for STAT3 antibody, Santa Cruz Biotechnology, Santa Cruz, Calif.) or anti-rabbit (for pSer727 STAT3 antibody, Amersham Biosciences, Piscataway, N.J.) IgG-HRP secondary antibody. All antibodies were diluted in blocking buffer. For immunodetection, membrane was incubated with enhanced chemiluminescence solutions per the manufacturer's specifications (Amersham Biosciences, Piscataway, N.J.), and exposed to Hyperfilm ECL (Denville Scientific Inc., Metuchen, N.J.).
In general terms: Immunoblotting shows a protein as a band on a membrane.

In data set [1] the test system is male germ cells. In kind it is in vivo, mouse. As to conditions: for germ cell apoptosis in testicular cross sections (TUNEL) compared to control: 24 hours after IP injection. How it is done: Young adult mice (12-13 weeks) were randomly divided into 4 groups with 4 or 5 mice per group and received an IP injection: control (Con) (saline), HN (40 mg/Kg BW), CP (200 mg/Kg BW), and the combination of CP+HN. These experiments were repeated four times. In the CP+HN group, mice received an injection of HN followed by an injection of CP about 15 minutes later. Twenty-four hours after injections animals were sacrificed using 5% pentobarbital (200 mg/kg BW) IP injection. Blood was collected and one testis was removed, weighed and frozen in liquid nitrogen. The mouse was next perfused with saline and then subsequently perfuse-fixed with Bouin's solution as previously described and apoptosis was assessed by TUNEL assay (Lue, et al., 2009).
For detection of apoptosis in testicular sections, the paraffin embedded testis tissue was cut into 5 micron sections and stained with the TdT-mediated dUTP nick-end labeling assay (TUNEL Apoptosis Detection Kit, Millipore, Billerica, Mass.) to detect apoptosis of germ cells in the testis (Lue, et al., 2009). Testicular sections assayed by TUNEL were examined under a light microscope and the apoptotic germ cells were blindly and manually counted. The seminiferous tubules in the testis section under the microscope were grouped as stages IX-IV (early-late stages of spermatogenesis) and V-VIII (middle stages of spermatogenesis). Germ cell apoptosis was quantified as the number of seminiferous tubules containing apoptotic spermatogonia, spermatoctyes, round spermatids and spermatozoa per 100 seminiferous tubules (Drumond, et al., 2011).
Statistical analyses of the majority of the data was performed using the Sigma Plot 12 program (Jandel, San Rafael, Calif.). The data were analyzed by using t-tests and one-way ANOVA followed by Student-Newman-Keuls Method. P-values of less than 0.05 (P<0.05) were considered significant. In in vivo experiments when the testicular sections were assessed for apoptosis, a mixed model used the percentage of tubules with apoptosis as the dependent variable. Two different stages (Early or Late Vs Middle) and four treatment groups (Control, HN CP, CP+HN) as well as the interaction term were included in the model as independent variables. Persons who did the experiment were considered as a random effect to accommodate a potential heterogeneous variance in the model. Least Square Means and their differences were computed and tested using the Tukey's adjustment for multiple pair-wise comparisons. A residual analysis was done to check for the model assumptions. All the data analysis was carried out using SAS 9.3 (Cary, N.C. USA).

Data set [2] relates to male germ cells. The data set is classed as in vivo, mouse. Here is the method:
as §1, §2
Detection of apoptotic cells was performed in Bouin's′-fixed, paraffin-embedded testicular sections by the terminal deoxynucleotidyl transferase (TdT)-mediated deoxy-UTP nick end labeling (TUNEL) technique (Sinha Hikim A P, et al., 1997) using an ApopTag-peroxidase kit (Chemicon International, Inc., Temecula, Calif.). Enumeration of the Sertoli cell nuclei with distinct nucleoli and apoptotic germ cell population was quantified at stages I-IV (early stages), stages VII-VIII (middle stages) and stages XI-XII (late stages) of the seminiferous epithelial cycle using an Olympus BH-2 microscope (New Hyde Park, N.Y.). Stages were identified according to the criteria proposed by Russell et al for paraffin sections (Russell L, 1977). The rate of germ cell apoptosis (apoptotic index, AI) was expressed as the number of apoptotic germ cells per Sertoli cells (Sinha Hikim A P, et al., 1997).

The subject of data set [3] is male germ cells.
The mark [4] stands for this setting: EDS 80 mg/kg IP 3 days before, CP 70 mg/kg BW.
Where [5] appears, read: rats not pre-treated with EDS, CP 70 mg/kg BW IP, 12 hours.

Several values for one entry are separate records, joined by “and”; a condition that tells them apart may be missing. Equal values may be shown once.

Turning to `O=P1(N(CCCl)CCCl)NCCCO1` (stereo not shown) [CP, cyclophosphamide monohydrate], in the data set with Leydig cells, the intratesticular testosterone levels entry is “had no significant effects” and the serum testosterone levels entry was “had no significant effects”. Moreover, the “STAT3 phosphorylation (phosphorylated STAT3/STAT3) compared with control” value in the data set with STAT3 is “suppressed Ser727-phosphorylated STAT3 in testes”. In addition, the “germ cell apoptosis in testicular cross sections (TUNEL) compared to control” value in the data set on male germ cells [1] (HN 40 mg/Kg, CP 200 mg/Kg) is recorded as “significantly increased germ cell apoptosis”. In the data set with male germ cells [1] (early-late stages of spermatogenesis, 24 hours, CP 200 mg/Kg, HN 40 mg/Kg), the “germ cell apoptosis, percentage of tubules with apoptotic cells, early-late stages” value is reported as “significantly increased germ cell apoptosis”. Besides, the “germ cell apoptosis, percentage of tubules with apoptotic cells, middle stages” value in the data set with male germ cells [1] (middle stages (V-VIII), 24 hours, CP 200 mg/Kg, HN 40 mg/Kg) is on record as “significant increase in apoptosis”. The “Apoptotic Index (AI), apoptotic germ cells per Sertoli cell, middle stages” value in the data set on male germ cells [2] (stages VII-VIII, 24 hours after single IP, CP 200 mg/Kg, HN, HN-S7A 40 mg/Kg, HNG, HNG-F6A 5 mg/Kg, monohydrate) was 0.25±0.03 and 0.33±0.03. Further, the “CP induced germ cell apoptosis with versus without EDS pre-treatment, early and late stages” value in the data set with male germ cells [3] (CP 70 mg/kg BW) is recorded as “significantly lower in EDS pre-treated rats”. Further, in the data set on male germ cells [3] (setting [4]), the “germ cell apoptosis at early (I-VI) and late (IX-XIV) stages, EDS pre-treated rats, compared to control” value is on record as “did not significantly increased germ cell apoptosis”; the “germ cell apoptosis in middle (VII-VIII) stages, EDS pre-treated rats” value is listed as “did not additively increased germ cell apoptosis caused by EDS treatment”. For the same compound, in the data set on male germ cells [3] (setting [5]), the “germ cell apoptosis at early (I-VI) and late (IX-XIV) stages compared to control” value was “significantly increased germ cell apoptosis”; the “germ cell apoptosis in the middle (VII-VIII) stages” value was “did not increase apoptosis in the middle (VII-VIII) stages”.
For the compound MAPRGFSCLLLLTSEIDLPVKRRA [HN], in the data set with Leydig cells (HN administered 3 days after EDS pre-treatment), the “EDS-induced Leydig cell loss” value is “did not reverse the EDS-induced Leydig cell loss”. In addition, in the data set on Leydig cells, the intratesticular testosterone levels entry was “had no significant effects” and the serum testosterone levels result was “had no significant effects”. Moreover, in the data set on STAT3, the “STAT3 phosphorylation (phosphorylated STAT3/STAT3) compared with control” value is on record as “did not change STAT3 phosphorylation”. Also, the “CP suppressed STAT3 (Ser727) phosphorylation” value in the data set with STAT3 (with CP 200 mg/Kg) is on record as “restored CP-induced Ser 727-phosphorylation of STAT3”. For the same compound, in the data set on male germ cells [1] (HN 40 mg/Kg, CP 200 mg/Kg), the “germ cell apoptosis in testicular cross sections (TUNEL) compared to control” value is “had no significant effect on germ cell apoptosis”. The “CP-induced germ cell apoptosis” value in the data set with male germ cells [1] (HN 40 mg/Kg IP about 15 minutes before CP 200 mg/Kg IP, 24 hours) was “attenuated the CP-induced germ cell apoptosis”. The “spontaneous germ cell apoptosis, peptide alone” value in the data set on male germ cells [2] (single IP, 24 hours, no CP) is reported as “did not change the spontaneous germ cell apoptosis”. For the same compound, the “inhibition of (protection against) CP-induced germ cell apoptosis, early+late stages” value in the data set on male germ cells [2] (stages I-IV and XI-XII, HN, HN-C8P 40 mg/kg BW, HNG, HNG-F6A 5 mg/kg BW) was ~57% and ~60%. For the same compound, the “effect on CP-induced germ cell apoptosis, middle stages” value in the data set with male germ cells [2] (stages VII-VIII, 40 mg/kg BW) was “not in middle stages”. Moreover, in the data set with male germ cells [3] (HN 40 mg/kg BW), the “germ cell apoptosis at early and late stages in EDS pre-treated rats, addition of HN” value is recorded as “did not significantly reduced germ cell apoptosis”. Also, the “CP effects at early and late stages in EDS pre-treated animals, addition of HN” value in the data set on male germ cells [3] (HN 40 mg/kg BW + CP + EDS) is reported as “did not change the CP effects in EDS pre-treated animals”. Moreover, the “EDS-induced apoptosis of germ cells, middle stages” value in the data set on male germ cells [3] (HN 40 mg/kg BW IP 3 days after EDS) is recorded as “significantly reduced the EDS-induced apoptosis of germ cells”. In addition, the “increase in apoptosis in CP+EDS group, middle stages” value in the data set on male germ cells [3] (concomitant HN 40 mg/kg BW) was “reduced by concomitant HN treatment”. The “apoptosis in CP treated testis, middle (VII-VIII) stages” value in the data set on male germ cells [3] (rats not pre-treated with EDS, HN 40 mg/kg BW + CP) is listed as “had no effect on CP treated testis”. Moreover, in the data set with male germ cells [3] (rats not pre-treated with EDS, HN 40 mg/kg BW IP + CP 70 mg/kg BW), the “CP-induced apoptosis at early and late stages” value is given as “significantly reduced CP-induced apoptosis”.
